Reference: PMC9827630, “Intra-colony venom diversity contributes to maintaining eusociality in a cooperatively breeding ant” (BMC Biology, 2023)
Values joined by “and” are separate entries in the source; they are usually repeats but may differ in a detail not shown here. Equal entries are not always repeated. Where two headings read alike, the source gives them in different places. Where no end group is shown, it is not given here.

Experiments:
HAP1 cells = assay: Cell viability assay, resazurin; assay type: cell-based
Procedure: In addition to the cytotoxicity assays performed by CO-ADD, we screened the synthetic peptides for toxicity in cell viability assays using HAP1, MM96L, and HEK293T cells. peptides were reconstituted in 100% DMSO then diluted in cell media (HAP1: IMDM (Sigma Aldrich) with 10% FBS and 1% Penicillin/Streptomycin (P/S); MM96L: RPMI (Gibco) with 10% FBS, 1% P/S and 1% GlutaMAX (Gibco); HEK293T: DMEM high glucose (Gibco), with 10% FBS and 1% P/S. Trypsinized cells ([…]) were seeded in each well of a 96-well plate. 0.01 to 1000 μM peptide was added to each well after 24 h, and the cells incubated for an additional 74 h. After incubation, the medium was aspirated from each well and 150 μL of fresh medium containing a 0.002% solution of resazurin (Sigma-Aldrich) was added to the wells and incubated for 4 h at 37 °C. The absorbance was measured at 570 nm using a microplate spectrophotometer (FLUOstar Omega, BMG Labtech, Germany). Percentage cell viability at concentrations of 10 and 100 μM peptide were compared with negative control by one-way ANOVA Dunnett’s multiple comparisons test (GraphPad Prism8).

[1] = system: Candida albicans ATCC 90028; assay: Antifungal growth inhibition (CO-ADD); assay type: cell-based; settings: absorbance at 530 nm; for Max response ± SEM: percentage growth inhibition, mean ± SEM; for MIC: sigmoidal dose-response fit of growth inhibition
Procedure: (§1) Antimicrobial and cytotoxicity assays were performed by CO-ADD (The Community for Antimicrobial Drug Discovery, Institute for Molecular Bioscience, The University of Queensland). […] Percentage growth inhibition was calculated using negative controls (media only) and positive controls (no peptide). For the hemolysis assays, human whole blood was washed three times with 3 volumes of 0.9% NaCl and then resuspended in 0.9% NaCl to a concentration of 0.5 × 10^8 cells/mL. Cells were incubated for 1 h at 37°C with or without the peptide. After incubation, plates were centrifuged at 1000 g for 10 min to pellet cells and debris and hemolysis determined by measuring the supernatant absorbance at 405 nm.

[2] = system: Cryptococcus neoformans var. grubii H99; ATCC 208821; assay: Antifungal growth inhibition (CO-ADD); assay type: cell-based; settings: for Max response ± SEM: percentage growth inhibition, difference in absorbance 600 and 570 nm after resazurin, 35°C 2 h, mean ± SEM; for MIC: sigmoidal dose-response fit of growth inhibition, resazurin read-out
Procedure: as §1

[3] = system: F11 (mouse neuroblastoma × rat dorsal root ganglion (DRG) neuron hybrid) cells; assay: Calcium imaging of F11 cells (FLIPR); assay type: cell-based; settings: increase in [Ca2+]i
Procedure: F11 (mouse neuroblastoma × rat dorsal root ganglion (DRG) neuron hybrid) cells were cultured as previously described. Cells were maintained on Ham’s F12 media supplemented with 10 % fetal bovine serum, 100 μM hypoxanthine, 0.4 μM aminopterin, and 16 μM thymidine (Hybri-MaxTM, Sigma Aldrich). 384-well imaging plates (Corning, Lowell, MA, USA) were seeded 48 h prior to imaging resulting in 90 – 95% confluence at imaging. Cells were incubated for 30 min with Calcium 4 assay component A, as per the manufacturer’s instructions (Molecular Devices, Sunnyvale, CA) in physiological salt solution (PSS; composition in mM: 140 NaCl, 11.5 D-glucose, 5.9 KCl, 1.4 MgCl2, 1.2 NaH2PO4, 5 NaHCO3, 1.8 CaCl2, 10 HEPES) at 37°C. […] Signals were read every second for 10 s before, and 300 s after, the addition of peptides in PSS supplemented with 0.1% bovine serum albumin. All data represent mean ± SEM of a representative assay in triplicate. Fluorescence changes on peptide addition were compared to addition of negative control solution (0.1% BSA in PSS). The resulting maximum-minimum fluorescence in the 300 s period after peptide addition was recorded as the response.

F11 = assay: Ion permeability F11; assay type: cell-based, mouse; settings: ions listed as permeant; - = none
HEK = assay: Ion permeability HEK; assay type: cell-based, Human; settings: ions listed as permeant; - = none
[4] = system: Human embryonic kidney cells ATCC CRL-1573; assay: Cytotoxicity assay (CO-ADD), resazurin; assay type: cell-based; settings: resazurin fluorescence; for Max response ± SEM: percentage growth inhibition, 37°C 5% CO2, mean ± SEM; for CC50 (concentration at 50% cytotoxicity): sigmoidal dose-response fit
Procedure: as §1

[5] = system: Staphylococcus aureus ATCC 43300; assay: Antimicrobial growth inhibition (CO-ADD); assay type: cell-based; settings: for Max response ± SEM: percentage growth inhibition, mean ± SEM; for Max response ± SEM / MIC: absorbance at 600 nm; for MIC: sigmoidal dose-response fit of growth inhibition
Procedure: as §1

[6] = system: Pseudomonas aeruginosa ATCC 27853; assay: Antimicrobial growth inhibition (CO-ADD); assay type: cell-based; settings: absorbance at 600 nm; for Max response ± SEM: percentage growth inhibition, mean ± SEM; for MIC: sigmoidal dose-response fit of growth inhibition
Procedure: as §1

[7] = system: Klebsiella pneumoniae ATCC 700603; assay: Antimicrobial growth inhibition (CO-ADD); assay type: cell-based; settings: absorbance at 600 nm; for Max response ± SEM: percentage growth inhibition, mean ± SEM; for MIC: sigmoidal dose-response fit of growth inhibition
Procedure: as §1

[8] = system: Escherichia coli ATCC 25922; assay: Antimicrobial growth inhibition (CO-ADD); assay type: cell-based; settings: absorbance at 600 nm; for Max response ± SEM: percentage growth inhibition, mean ± SEM; for MIC: sigmoidal dose-response fit of growth inhibition
Procedure: as §1

[9] = system: Acinetobacter baumannii ATCC 19606; assay: Antimicrobial growth inhibition (CO-ADD); assay type: cell-based; settings: for Max response ± SEM: percentage growth inhibition, mean ± SEM; for Max response ± SEM / MIC: absorbance at 600 nm; for MIC: sigmoidal dose-response fit of growth inhibition
Procedure: as §1

panel of microbes = assay: Antimicrobial screening, summary over the panel of microbes; assay type: cell-based
Procedure: as §1

Human red blood cells = assay: Hemolysis assay (CO-ADD); assay type: cell-based; settings: 1 h at 37°C; for HC50 (concentration at 50% hemolytic activity): absorbance at 405 nm, sigmoidal dose-response fit; for Max response ± SEM: hemolysis, washed human blood 0.5 × 10^8 cells/mL in 0.9% NaCl, supernatant absorbance at 405 nm, mean ± SEM
Procedure: as §1

[10] = system: Female fruit flies (D. melanogaster strain Canton-S); assay: Fruit fly injection assay (lethality, paralysis, climbing); assay type: in vivo, Drosophila melanogaster; settings: 5 nmol/g injected, climbing assay 5 min after injection; significant versus control
Procedure: Female fruit flies (D. melanogaster strain Canton-S) were injected four to six days post-emergence. Female flies were used because their larger size makes injection easier. Groups of eight female flies were assayed in triplicate for each dose tested. Injection needles were formed from glass capillary tubes (#3-000-203-G/X, Drummond, Birmingham, AL, USA) using a micropipette puller (Sutter Instrument Co. Model P-97), with the fine tip manually trimmed afterwards using scissors. Needles then were filled with mineral oil, connected to a Nanoliter 2000 microinjector ([…], Bensenville, IL USA) equipped with a foot pedal, and ~1 μL of peptide solution or water aspirated. Each group of flies were immobilized by cooling for approximately 2 min on ice, and then decanted on the top of the ‘injection stage’, a petri dish filled with ice. Under a dissecting microscope, each fly was carefully impaled on the lateral thorax behind the wing, and 50.6 nL of venom peptide or water was injected. After injection, each group of flies were returned to their 5 mL plastic tube at room temperature and their behavior observed.

[11] = max-min fluorescence over 300 s, read-out: EC50 (F11 cells, Table S2)
[12] = all strains of the panel (for Rm54a and Rm55a: strains other than S. aureus)

Row | Substance | Cytotoxicity to HAP cells (HAP1 cells) | Max response ± SEM [1] | MIC [1] [µM] | Max response ± SEM [2] | MIC [2] [µM] | ion permeability F11 (F11) | ion permeability HEK (HEK) | Max response ± SEM [4] | CC50 (concentration at 50% cytotoxicity) [4] | Max response ± SEM [5] | MIC [5] [µM] | Max response ± SEM [6] | MIC [6] [µM] | Max response ± SEM [7] | MIC [7] [µM] | Max response ± SEM [8] | MIC [8] [µM] | Max response ± SEM [9] | MIC [9] [µM] | HC50 (concentration at 50% hemolytic activity) (Human red blood cells) | other results
1 | ALWDTIKKWVAKVLPLVKNALK-NH2 [Rm20a] | cytotoxic to HAP cells | 8 ± 7 | >13 | 88 ± 1 | 0.79 | Ca2+,Na+,Th+ | Ca2+,Na+,Th+ | 57 ± 5 | 11 µM | 102 ± 2 | 1.6 | 14 ± 2 | >13 | 71 ± 29 | >13 | 100 ± 0 | 13 | 100 ± 1 | ≤0.10 | >13 (HC50) uM | HAP cell viability (HAP1 cells; 10 μM peptide, n = 3 per group): significantly reduced HAP cell viability; EC50 [3, 11]: 8.1 µM; EC50 ([9]; summary of Table S2): ≤ 0.1 µM; Growth inhibition over the microbial strains examined (panel of microbes; all microbial strains except Pseudomonas aeruginosa and Candida albicans): complete or near-complete growth inhibition of all microbial strains
2 | FLPFLIPVIASLVSSLK-NH2 [Rm55a] | cytotoxic to HAP cells | 3 ± 0 | >17 | -10 ± 0 | >17 | Ca2+,Na+,Th+ | Ca2+,Na+ | 51 ± 0 | >17 (CC50) uM | 103 ± 2 | ≤0.14 | 10 ± 1 | >17 | 8 ± 1 | >17 | 4 ± 1 | >17 | 24 ± 1 | >17 | >17 (HC50) uM | HAP cell viability (HAP1 cells; 100 μM peptide, n = 3, mean ± SEM): 24.6 ± 8.1%; EC50 ([3]; max – min fluorescence, n = 3, four-parameter Hill equation, read-out: EC50 (effect on F11 cells, Fig. 5)): 9.2 µM; Inhibition of S. aureus (in words) [5]: complete inhibition; EC50 ([5]; summary of Table S2): ≤ 0.14 µM; Growth inhibition over the microbial strains examined (panel of microbes; [12]): not affecting any of the other strains examined; Max response ± SEM (Human red blood cells): 15 ± 6
3 | FWLKGGRGDG-NH2 [Rm53a/b] |  |  | >29 |  | >29 |  |  |  |  | 5 ± 1 and 7 ± 2 | >29 | 12 ± 4 and 11 ± 5 | >29 | 5 ± 0 | >29 | 4 ± 1 and 3 ± 1 | >29 | 5 ± 1 and 4 ± 2 | >29 |  | Growth inhibition over the microbial strains examined (panel of microbes; [12]): no inhibitory activity
4 | ILPALIPVFASLLPWAIKKF-NH2 [Rm55b] | cytotoxic to HAP cells | 3 ± 0 | >14 | 86 ± 4 | 11 | Ca2+,Na+,Th+ | Ca2+,Na+,Th+ | 98 ± 1 | 2.6 µM | 103 ± 1 | ≤0.11 | 3 ± 1 | >14 | 12 ± 1 | >14 | 11 ± 1 | >14 | 98 ± 0 | 14 | 7.4 µM | Motor behavior (climbing assay) [10]: disrupted motor behavior; HAP cell viability (HAP1 cells; 10 μM peptide, n = 3 per group): significantly reduced HAP cell viability; EC50 [3, 11]: 4 µM; Max response ± SEM (Human red blood cells): 40 ± 3
5 | RNVPRWFTPRL-NH2 [Rm52d] |  | 2 ± 1 | >22 | -13 ± 5 | >22 |  |  |  |  | 12 ± 6 | >22 | 7 ± 0 | >22 | 5 ± 0 | >22 | 1 ± 2 | >22 | 5 ± 2 | >22 |  | Growth inhibition over the microbial strains examined (panel of microbes; [12]): no inhibitory activity
